Like-named read-outs stand apart in the source and are kept apart here.
Columns and labels:
[1] = system: AGP; conditions: calibration set; equilibrium dialysis; literature; cited from earlier work
[2] = system: AGP
[3] = system: HSA; conditions: calibration set; log k = log (%binding/(101-%binding)) from literature % binding
[4] = molecular target: human serum albumin (HSA) (Homo sapiens, UniProt P02768); assay: Protein binding on Chiralpak HSA HPLC column; conditions: pH 7.4, Chiralpak HSA
Protocol: The measurement of the biomimetic properties of the available drugs was conducted in our laboratories. Generic gradient HPLC methods were used to determine the chromatographic hydrophobicity Index (CHI) using mobile phases at three different pH values. The protein binding of the compounds was measured using immobilised human serum albumin (HSA), and alpha-1-acid-glycoprotein (AGP) stationary phases. The phospholipid-binding was measured using the immobilised artificial membrane (IAM) stationary phase. The aim was to establish relationships between the cardiotoxicity potential and the biomimetic binding properties of the drugs and to evaluate their predictive performance.

[5] = system: HSA; conditions: calibration set; equilibrium dialysis; literature; cited from earlier work
[6] = system: AGP; assay: Literature % binding to AGP by equilibrium dialysis (calibration set); conditions: log k = log (%binding/(101-%binding)) from literature % binding
[7] = Phospholipid binding at pH 7.4 on IAM PC.DD2 HPLC column; type: physicochemical; design: key to CHI IAM: approximates acetonitrile concentration (%) in mobile phase at elution; conditions: for log k IAM: pH 7.4, derived from CHI IAM by equation 1
In short: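 Gradient retention on IAM PC.DD2 column (100 x 4.6 mm) with 50 mM ammonium acetate pH 7.4, 1.5 mL/min, 6 min cycle. Retention calibrated against acetophenone homologues to give CHI IAM (approximate acetonitrile concentration at elution), converted to log k IAM by equation.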

[8] = system: hERG channel; conditions: literature values, mean where several reported, molar; cited from earlier work
[9] = system: alpha-1-acid-glycoprotein (AGP); assay: Protein binding on Chiralpak AGP HPLC column; conditions: pH 7.4, Chiralpak AGP
In short: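 Binding measured by gradient HPLC on immobilised HSA or AGP stationary phases.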

[10] = Charge character of the drugs at pH 7.4; type: physicochemical
[11] = CHI lipophilicity by gradient reversed-phase HPLC (Gemini NX-C-18)
In short: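 Calibrated gradient retention times came from a 50 x 3 mm, 5 μm C-18 column run with a 0–100% linear acetonitrile gradient. A standard compound set converted these times to CHI values.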

[12] = design: method as in doi:10.5599/admet.5.1.373; conditions: calibration set; predetermined by isocratic measurements; cited from earlier work

Sequence of human serum albumin (HSA) (P02768 25-609): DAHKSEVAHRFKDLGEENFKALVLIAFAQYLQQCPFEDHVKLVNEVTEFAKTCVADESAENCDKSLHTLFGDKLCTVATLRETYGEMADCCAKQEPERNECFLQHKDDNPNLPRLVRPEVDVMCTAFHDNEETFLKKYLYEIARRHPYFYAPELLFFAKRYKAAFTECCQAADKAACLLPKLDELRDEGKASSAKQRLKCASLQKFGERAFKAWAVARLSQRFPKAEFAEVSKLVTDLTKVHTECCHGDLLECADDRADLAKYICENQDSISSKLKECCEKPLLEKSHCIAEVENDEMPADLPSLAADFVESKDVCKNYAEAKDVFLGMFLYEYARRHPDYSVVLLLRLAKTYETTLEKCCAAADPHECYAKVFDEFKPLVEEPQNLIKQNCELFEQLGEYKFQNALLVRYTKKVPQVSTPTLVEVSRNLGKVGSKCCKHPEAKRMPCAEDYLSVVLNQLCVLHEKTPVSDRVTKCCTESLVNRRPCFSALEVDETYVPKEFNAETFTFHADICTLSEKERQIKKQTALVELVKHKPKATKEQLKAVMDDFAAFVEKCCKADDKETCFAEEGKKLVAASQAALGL

| SMILES | % AGP [1] [%] | log k AGP [2] | log k HSA [3] | log k HSA [4] | %HSA [5] [%] | log k AGP [6] | log k IAM [7] | hERG pIC50 [8] | log k AGP [9] | Charge [10] | CHI IAM ([7]; pH 7.4) | chromatographic logD ([11]; Gemini NX-C-18 reversed-phase HPLC column, pH 7.4) | chromatographic logP ([11]; reversed-phase HPLC, Gemini NX-C-18 column (50 x 3 mm, 5 µm)) | CHI IAM [12] |
| --- | --- | --- | --- | --- | --- | --- | --- | --- | --- | --- | --- | --- | --- | --- |
| CC(=O)CC(c1ccccc1)c1c(O)c2ccccc2oc1=O (stereo not shown) [Warfarin] | 83.2 | 0.7 | 1.5 |  |  |  |  |  |  |  |  |  |  |  |
| COc1cc(Cc2cnc(N)nc2N)cc(OC)c1OC [Trimethoprim] | 46.2 |  | -0.2 | -0.05 | 37.6 | -0.1 | 1.01 | 3.62 | -0.07 |  |  |  |  |  |
| NC(=O)N1c2ccccc2C=Cc2ccccc21 [Carbamazepine] | 65.0 |  | 0.5 | 0.07 | 75.0 | 0.3 | 1.53 | 3.98 | -0.85 | Neutral | 23.98 | 1.22 | 1.33 |  |
| CC(=O)Nc1ccc(O)cc1 [Paracetamol] | 3.2 |  | -0.8 |  | 14.0 | -1.5 |  |  |  |  |  |  |  | 2.9 |
